Results published in patent US11547697B2, “Heterocyclic compounds and uses thereof” (MILLENNIUM PHARMACEUTICALS, INC., priority 2009, dated 2023).
Like-named read-outs stand apart in the source and are kept apart here.

Columns and labels:
p110β/p85α = p110β/p85α (Homo sapiens (Human), UniProt P42338); assay: PI 3-Kinase (human) HTRF assay, p110β/p85α; type: biochemical
p110δ/p85α = p110δ/p85α (Homo sapiens (Human), UniProt O00329); assay: PI 3-Kinase (human) HTRF assay, p110δ/p85α; type: biochemical
Sequence of p110δ/p85α (O00329 whole entry): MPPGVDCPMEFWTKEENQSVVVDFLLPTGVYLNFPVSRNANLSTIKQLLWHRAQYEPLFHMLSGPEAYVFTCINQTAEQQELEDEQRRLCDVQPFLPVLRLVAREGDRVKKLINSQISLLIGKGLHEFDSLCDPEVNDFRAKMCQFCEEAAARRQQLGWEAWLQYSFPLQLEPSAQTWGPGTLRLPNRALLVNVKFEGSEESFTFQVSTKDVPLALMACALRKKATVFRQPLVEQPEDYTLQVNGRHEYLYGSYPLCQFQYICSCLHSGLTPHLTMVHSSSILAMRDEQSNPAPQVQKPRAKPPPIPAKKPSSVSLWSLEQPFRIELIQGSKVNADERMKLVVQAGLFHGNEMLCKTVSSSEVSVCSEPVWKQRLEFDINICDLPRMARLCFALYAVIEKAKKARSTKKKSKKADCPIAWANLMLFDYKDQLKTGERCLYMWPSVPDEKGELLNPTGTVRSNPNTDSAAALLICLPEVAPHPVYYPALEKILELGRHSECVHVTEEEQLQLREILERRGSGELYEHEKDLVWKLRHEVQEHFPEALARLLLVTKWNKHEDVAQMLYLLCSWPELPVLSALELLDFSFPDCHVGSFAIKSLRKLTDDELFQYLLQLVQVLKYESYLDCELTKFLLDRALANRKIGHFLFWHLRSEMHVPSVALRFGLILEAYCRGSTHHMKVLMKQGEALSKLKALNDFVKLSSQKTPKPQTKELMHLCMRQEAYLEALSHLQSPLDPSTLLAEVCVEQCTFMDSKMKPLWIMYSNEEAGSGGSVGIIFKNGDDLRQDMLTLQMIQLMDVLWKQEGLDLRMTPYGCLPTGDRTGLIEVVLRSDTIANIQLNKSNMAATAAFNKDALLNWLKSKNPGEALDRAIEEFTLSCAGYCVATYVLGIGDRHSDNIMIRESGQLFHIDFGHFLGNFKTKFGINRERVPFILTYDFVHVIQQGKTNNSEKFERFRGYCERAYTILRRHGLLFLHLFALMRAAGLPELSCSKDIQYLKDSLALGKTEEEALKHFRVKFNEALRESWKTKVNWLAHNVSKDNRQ
Sequence of p110δ/p85α (P27986 whole entry partner): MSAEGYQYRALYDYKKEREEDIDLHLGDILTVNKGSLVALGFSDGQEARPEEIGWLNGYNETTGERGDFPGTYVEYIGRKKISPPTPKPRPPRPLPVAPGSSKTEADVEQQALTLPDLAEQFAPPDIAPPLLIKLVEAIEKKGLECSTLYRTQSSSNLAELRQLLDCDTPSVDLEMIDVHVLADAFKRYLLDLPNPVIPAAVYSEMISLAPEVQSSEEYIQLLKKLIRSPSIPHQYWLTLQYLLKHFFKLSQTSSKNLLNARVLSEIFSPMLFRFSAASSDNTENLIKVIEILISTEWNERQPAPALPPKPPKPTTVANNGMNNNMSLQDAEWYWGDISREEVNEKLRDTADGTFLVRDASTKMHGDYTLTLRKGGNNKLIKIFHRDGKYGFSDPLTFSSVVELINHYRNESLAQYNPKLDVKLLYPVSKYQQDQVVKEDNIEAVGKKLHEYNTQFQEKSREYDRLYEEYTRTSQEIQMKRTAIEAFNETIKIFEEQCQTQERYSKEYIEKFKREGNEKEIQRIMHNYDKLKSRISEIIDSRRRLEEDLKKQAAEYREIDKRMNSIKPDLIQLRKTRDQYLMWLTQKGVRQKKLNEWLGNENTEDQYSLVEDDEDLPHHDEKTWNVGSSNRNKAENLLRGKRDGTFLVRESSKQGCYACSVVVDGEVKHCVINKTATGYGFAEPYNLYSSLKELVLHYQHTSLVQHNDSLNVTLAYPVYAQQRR

[1] = tested on: tumor cells with a PI3Kα mutation (e.g., MDA-MB-361 and T47D); assay: Proliferation of tumor cells with PI3Kα mutation; type: cell-based; details: Homo sapiens
p110γ = p110γ (Homo sapiens (Human), UniProt P48736); assay: PI 3-Kinase (human) HTRF assay, p110γ; type: biochemical
Sequence of p110γ (P48736 whole entry): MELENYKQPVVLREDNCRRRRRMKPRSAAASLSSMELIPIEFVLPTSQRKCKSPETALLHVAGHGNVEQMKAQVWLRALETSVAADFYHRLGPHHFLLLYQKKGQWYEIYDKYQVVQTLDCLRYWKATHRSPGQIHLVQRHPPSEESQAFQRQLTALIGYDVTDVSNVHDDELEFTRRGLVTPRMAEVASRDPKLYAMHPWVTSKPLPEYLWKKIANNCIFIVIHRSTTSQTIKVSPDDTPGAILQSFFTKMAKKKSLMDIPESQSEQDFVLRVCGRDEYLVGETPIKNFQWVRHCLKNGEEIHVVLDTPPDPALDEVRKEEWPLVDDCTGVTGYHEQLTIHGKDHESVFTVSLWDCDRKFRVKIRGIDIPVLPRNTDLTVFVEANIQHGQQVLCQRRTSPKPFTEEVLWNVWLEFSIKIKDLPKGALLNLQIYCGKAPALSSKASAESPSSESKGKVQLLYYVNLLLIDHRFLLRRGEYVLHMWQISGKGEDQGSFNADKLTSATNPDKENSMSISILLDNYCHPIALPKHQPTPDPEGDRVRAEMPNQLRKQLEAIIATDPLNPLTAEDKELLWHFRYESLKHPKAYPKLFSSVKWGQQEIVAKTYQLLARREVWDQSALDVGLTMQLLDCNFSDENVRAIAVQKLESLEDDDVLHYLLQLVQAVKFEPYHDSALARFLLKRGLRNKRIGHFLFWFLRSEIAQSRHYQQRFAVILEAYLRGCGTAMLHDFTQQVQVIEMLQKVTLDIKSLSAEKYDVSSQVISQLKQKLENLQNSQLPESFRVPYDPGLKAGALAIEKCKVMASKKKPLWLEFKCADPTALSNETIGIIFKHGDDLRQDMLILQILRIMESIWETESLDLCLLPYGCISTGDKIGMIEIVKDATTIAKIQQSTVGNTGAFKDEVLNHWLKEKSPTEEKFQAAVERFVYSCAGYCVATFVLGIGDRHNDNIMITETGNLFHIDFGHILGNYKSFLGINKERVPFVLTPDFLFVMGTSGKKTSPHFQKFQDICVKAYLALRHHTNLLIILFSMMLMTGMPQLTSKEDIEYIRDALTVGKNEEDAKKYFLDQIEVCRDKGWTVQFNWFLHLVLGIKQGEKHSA

p110α/p85α = p110α/p85α (Homo sapiens (Human), UniProt P42336); assay: PI 3-Kinase (human) HTRF assay, p110α/p85α; type: biochemical
Sequence of p110α/p85α (P42336 whole entry): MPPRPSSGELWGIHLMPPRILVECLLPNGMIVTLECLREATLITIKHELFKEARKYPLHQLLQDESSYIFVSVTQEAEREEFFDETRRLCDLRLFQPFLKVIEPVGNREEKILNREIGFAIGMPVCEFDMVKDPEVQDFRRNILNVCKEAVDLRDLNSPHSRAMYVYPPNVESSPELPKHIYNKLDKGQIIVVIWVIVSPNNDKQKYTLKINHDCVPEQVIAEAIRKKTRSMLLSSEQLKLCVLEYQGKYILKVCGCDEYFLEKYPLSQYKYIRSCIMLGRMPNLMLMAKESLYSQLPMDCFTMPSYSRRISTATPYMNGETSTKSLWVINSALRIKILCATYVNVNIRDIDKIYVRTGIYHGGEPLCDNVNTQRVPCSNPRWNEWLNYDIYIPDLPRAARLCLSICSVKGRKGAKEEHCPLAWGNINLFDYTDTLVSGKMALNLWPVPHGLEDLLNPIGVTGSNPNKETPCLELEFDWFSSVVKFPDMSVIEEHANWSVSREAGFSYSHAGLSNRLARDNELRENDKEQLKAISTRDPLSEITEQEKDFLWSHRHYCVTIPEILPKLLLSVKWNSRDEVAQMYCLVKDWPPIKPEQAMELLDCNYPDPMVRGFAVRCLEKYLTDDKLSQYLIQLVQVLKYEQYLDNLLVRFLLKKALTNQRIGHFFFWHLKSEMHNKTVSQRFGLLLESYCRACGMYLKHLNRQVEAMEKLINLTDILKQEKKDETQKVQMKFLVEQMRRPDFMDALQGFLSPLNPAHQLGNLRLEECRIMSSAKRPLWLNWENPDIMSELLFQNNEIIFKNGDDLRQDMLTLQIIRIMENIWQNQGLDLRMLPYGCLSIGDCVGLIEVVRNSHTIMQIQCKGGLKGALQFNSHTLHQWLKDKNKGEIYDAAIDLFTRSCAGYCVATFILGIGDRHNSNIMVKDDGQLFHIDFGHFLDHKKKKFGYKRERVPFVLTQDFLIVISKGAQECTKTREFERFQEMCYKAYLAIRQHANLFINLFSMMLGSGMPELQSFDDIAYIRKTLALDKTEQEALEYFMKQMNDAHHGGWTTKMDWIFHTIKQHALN
Sequence of p110α/p85α (P27986 whole entry partner): as the sequence (P27986 whole entry partner) above

[2] = T47D cells, read-out: T47D proliferation
[3] = in vitro, read-out: PI3K β IC50
[4] = in vitro, read-out: PI3K δ IC50
[5] = T47D cells, read-out: T47D proliferation IC50
[6] = in vitro, read-out: PI3K γ IC50
[7] = in vitro, read-out: PI3K α IC50
[8] = PC3, read-out: PC3 proliferation In Vitro IC50

Sequence of p110β/p85α (P42338 whole entry): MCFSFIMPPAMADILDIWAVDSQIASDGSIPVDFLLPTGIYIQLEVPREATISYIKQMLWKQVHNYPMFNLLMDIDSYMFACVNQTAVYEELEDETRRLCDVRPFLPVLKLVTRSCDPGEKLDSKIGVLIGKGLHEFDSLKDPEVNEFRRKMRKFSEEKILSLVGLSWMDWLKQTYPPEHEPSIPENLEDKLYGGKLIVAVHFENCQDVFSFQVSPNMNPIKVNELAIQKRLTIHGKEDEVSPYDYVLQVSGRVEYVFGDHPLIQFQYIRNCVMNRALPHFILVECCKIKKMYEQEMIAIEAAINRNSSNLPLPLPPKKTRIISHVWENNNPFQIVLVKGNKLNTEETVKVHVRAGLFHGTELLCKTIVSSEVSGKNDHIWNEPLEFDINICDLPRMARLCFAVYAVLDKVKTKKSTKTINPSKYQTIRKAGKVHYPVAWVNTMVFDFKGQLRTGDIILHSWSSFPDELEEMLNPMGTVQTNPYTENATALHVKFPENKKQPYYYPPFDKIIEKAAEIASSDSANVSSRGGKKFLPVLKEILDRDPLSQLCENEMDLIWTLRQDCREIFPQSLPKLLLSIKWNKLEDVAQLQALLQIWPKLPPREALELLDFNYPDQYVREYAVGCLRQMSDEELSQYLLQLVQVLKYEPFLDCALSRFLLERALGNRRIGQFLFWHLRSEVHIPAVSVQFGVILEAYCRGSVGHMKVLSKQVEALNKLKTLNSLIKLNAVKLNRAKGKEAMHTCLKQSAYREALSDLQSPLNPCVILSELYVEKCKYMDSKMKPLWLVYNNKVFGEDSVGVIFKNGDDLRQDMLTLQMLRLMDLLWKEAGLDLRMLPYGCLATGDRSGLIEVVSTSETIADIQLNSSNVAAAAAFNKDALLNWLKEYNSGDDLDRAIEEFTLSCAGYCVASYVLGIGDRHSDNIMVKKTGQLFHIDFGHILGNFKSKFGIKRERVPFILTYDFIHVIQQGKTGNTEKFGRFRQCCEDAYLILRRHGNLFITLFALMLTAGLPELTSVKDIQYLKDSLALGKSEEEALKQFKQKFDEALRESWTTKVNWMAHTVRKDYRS
Sequence of p110β/p85α (P27986 whole entry partner): as the sequence (P27986 whole entry partner) above

IC50 (p110β/p85α; read-out: PI3K β IC50) [nM]	IC50 (p110δ/p85α; read-out: PI3K δ IC50) [nM]	IC50 [1, 2] [nM]	IC50 (p110γ; read-out: PI3K γ IC50) [nM]	IC50 (p110α/p85α; read-out: PI3K α IC50) [nM]	IC50 (p110β/p85α; [3]) [nM]	IC50 (p110δ/p85α; [4]) [nM]	IC50 [1, 5] [nM]	IC50 (p110γ; [6]) [nM]	IC50 (p110α/p85α; [7]) [nM]	SMILES	also measured
< 1000	< 1000	< 1000	< 1000	< 100						CC(=O)N1CCC(N(C)c2ncnc3ccc(-c4ccc5oc(N)nc5c4)cc23)CC1 [compound 137]	
< 100	< 1000	< 1000	< 1000	< 100						Nc1nc2cc(-c3ccc4ncc(N5CCN(CC6CC6)CC5)nc4c3)ccc2o1 [compound 153]	
< 1000	< 1000	< 1000	< 1000	< 100						Nc1nc2cc(-c3ccc4ncc(C(=O)NCCO)n4c3)ccc2o1 [compound 189]	
					< 10000	< 10000	< 10000	< 1000	< 100	NC(=O)[C@H]1CCCN1C(=O)C1CN(c2cnc3ccc(-c4ccc5oc(N)nc5c4)cc3n2)C1 [compound 284]	
< 10000	< 10000	< 10000	< 100	< 100						CCn1cnc2ccc(-c3ccc4oc(N)nc4c3)cc2c1=O [compound 183]	
					< 10000	< 10000	< 10000	< 100	< 100	Nc1nc2cc(-c3ccc4ncc(C(=O)N5CC(O)C5)n4c3)ccc2o1 [compound 200]	
										COc1ncc(-c2ccc3ncn(C4CCN(C(C)C)CC4)c(=O)c3c2)cc1NS(=O)(=O)c1ccccc1 [compound 522]	IC50 (p110β/p85α; read-out: PI3K β In Vitro IC50): < 100 nM; IC50 (p110δ/p85α; read-out: PI3K δ In Vitro IC50): < 100 nM; IC50 [1, 8]: < 1000 nM; IC50 (p110γ; read-out: PI3K γ In Vitro IC50): < 100 nM; IC50 (p110α/p85α; read-out: PI3K α In Vitro IC50): < 100 nM
					< 1000	< 1000	< 1000	< 100	< 100	Nc1nc2cc(-c3ccc4ncc(N5CCN(C(=O)C6(N)CCC6)CC5)nc4c3)ccc2o1 [compound 286]	
										C[C@H]1CN(C2CN(C(=O)c3cnc4ccc(-c5ccc6oc(N)nc6c5)cn34)C2)CCN1C [compound 512]	IC50 (p110β/p85α; read-out: PI3K β In Vitro IC50): < 10000 nM; IC50 (p110δ/p85α; read-out: PI3K δ In Vitro IC50): < 1000 nM; IC50 [1, 8]: < 1000 nM; IC50 (p110γ; read-out: PI3K γ In Vitro IC50): < 10000 nM; IC50 (p110α/p85α; read-out: PI3K α In Vitro IC50): < 100 nM
					< 100	< 100	< 1000	< 100	< 100	CC(=O)N1CCC(Nc2ncnc3ccc(-c4ccc5oc(N)nc5c4)nc23)CC1 [compound 211]	
< 10000	< 1000	< 1000	< 100	< 100						Nc1nc2cc(-c3ccc4ncc(NC5CCOCC5)nc4c3)ccc2o1 [compound 96]	
										O=C(c1cnc2ccc(-c3cnc(Cl)c(NS(=O)(=O)c4cccc(F)c4)c3)cn12)N1CCOCC1 [compound 458]	IC50 (p110β/p85α; read-out: PI3K β In Vitro IC50): < 100 nM; IC50 (p110δ/p85α; read-out: PI3K δ In Vitro IC50): < 100 nM; IC50 [1, 8]: < 1000 nM; IC50 (p110γ; read-out: PI3K γ In Vitro IC50): < 100 nM; IC50 (p110α/p85α; read-out: PI3K α In Vitro IC50): < 100 nM
< 100	< 10000	< 1000	< 1000	< 100						Nc1nc2cc(-c3ccc4ncc(N5CCN(CCO)CC5)nc4c3)ccc2o1 [compound 100]	
< 1000	< 10000	< 10000	< 10000	< 100						C[C@@H]1CN(c2cnc3ccc(-c4ccc5oc(N)nc5c4)cc3n2)CCN1 [compound 179]	
					< 1000	< 10000	< 10000	< 100	< 100	Nc1nc2cc(-c3ccc4ncc(N5CCC(O)C5)nc4c3)ccc2o1 (stereo not drawn) [compound 209]	
					< 10000	< 1000	< 1000	< 10000	< 100	Nc1nc2cc(-c3ccc4ncc(N5CC(N6CCN(CCO)CC6)C5)nc4c3)ccc2o1 [compound 333]	
					< 1000	< 1000	< 10000	< 10000	< 1000	Nc1nc2cc(-c3ccc4ncc(C(=O)NCCCN5CCOCC5)n4c3)ccc2o1 [compound 288]	
< 1000	< 1000	< 10000	< 1000	< 100						CC(C)(C)N1CCN(c2cnc3ccc(-c4ccc5oc(N)nc5c4)cc3n2)CC1 [compound 182]	
< 10000	< 1000	< 10000	< 100	< 100						Nc1nc2cc(-c3ccc4ncc(C(=O)N5CCCC5)n4c3)ccc2o1 [compound 186]	
					< 10000	< 10000	< 1000	< 1000	< 100	C[C@H]1CN(C(=O)C2CN(c3cnc4ccc(-c5ccc6oc(N)nc6c5)cc4n3)C2)CCN1 [compound 268]	
< 1000	< 100	< 10000	< 1000	< 100						CN1CCC(NC(=O)c2cnc3ccc(-c4ccc5oc(N)nc5c4)cn23)CC1 [compound 159]	
